Source: paper PMC6331912, “7-Methoxytacrine-p-Anisidine Hybrids as Novel Dual Binding Site Acetylcholinesterase Inhibitors for Alzheimer’s Disease Treatment” (Molecules, 2015)

Assays:
Assay type in all cases: biochemical
[1] = target: T1, human recombinant acetylcholinesterase (hAChE) (Homo sapiens, UniProt P22303); test: biochemical; settings: for IC50: mean of at least three experiments, substrate ATCh, pH 7.4, 37 °C, read-out: hAChE IC50 ± SEM; for Selectivity for hAChE: ratio hBChE IC50/hAChE IC50; for fold weaker inhibitor of hAChE compared to tacrine: ratio of IC50 to tacrine
T1 construct: purchased Sigma-Aldrich (Prague, Czech Republic)

[2] = target: human plasma butyrylcholinesterase (hBChE) (Homo sapiens, UniProt P06276); test: biochemical; settings: for IC50: mean of at least three experiments, substrate BTCh, pH 7.4, 37 °C, read-out: hBChE IC50 ± SEM; for fold weaker inhibitor of hBChE related to tacrine: ratio of IC50 to tacrine
AChE = target: T2, AChE (Homo sapiens, UniProt P22303); test: Kinetic study of AChE inhibition (Ellman's method, nonlinear regression, Lineweaver-Burk); settings: for Ki: estimated by nonlinear regression analysis, substrate ATCh; for type of inhibition: p < 0.05, apparent Vmax decreased, Km unchanged with increasing inhibitor concentration
T2 construct: purchased Sigma-Aldrich (Prague, Czech Republic)
Method: […]. We used a kinetic assay in order to obtain information about the mode of inhibition and binding site of the target compounds. The mechanism of inhibition was analyzed by recording substrate concentration—enzymatic reaction rate curves in the presence of different concentrations of compounds 15 and 19. Analysis confirmed a non-competitive type of inhibition (p < 0.05) for both compounds. With increasing concentration of inhibitor, apparent Vmax decreased and Km remained unchanged. […] […]. Such a pattern of inhibition is also characteristic for donepezil and it may indicate prevailing interactions of the enzyme with PAS [36]. PAS of AChE is associated with the ability to induce Aβ aggregation, thus, compounds interacting with this region may inhibit such a process and could have additional benefit for the treatment of AD [37].
Figure 3 Steady-state inhibition of AChE hydrolysis of acetylthiocholine (ATCh) by compounds 15 and 19. […]. Lines were derived from a weighted least-squares analysis of data.
The kinetic study of AChE inhibition was performed by using Ellman’s method (described above). The type of inhibition was elucidated from the nonlinear regression analysis. Results for each type model of inhibition (competitive, noncompetitive, uncompetitive and mixed) were compared with sum-of-squares F-test. […]. Linear regression was used for calculation of Lineweaver-Burk plots. All calculations were performed using the GraphPad Prism software.

T1 sequence (P22303 32-614): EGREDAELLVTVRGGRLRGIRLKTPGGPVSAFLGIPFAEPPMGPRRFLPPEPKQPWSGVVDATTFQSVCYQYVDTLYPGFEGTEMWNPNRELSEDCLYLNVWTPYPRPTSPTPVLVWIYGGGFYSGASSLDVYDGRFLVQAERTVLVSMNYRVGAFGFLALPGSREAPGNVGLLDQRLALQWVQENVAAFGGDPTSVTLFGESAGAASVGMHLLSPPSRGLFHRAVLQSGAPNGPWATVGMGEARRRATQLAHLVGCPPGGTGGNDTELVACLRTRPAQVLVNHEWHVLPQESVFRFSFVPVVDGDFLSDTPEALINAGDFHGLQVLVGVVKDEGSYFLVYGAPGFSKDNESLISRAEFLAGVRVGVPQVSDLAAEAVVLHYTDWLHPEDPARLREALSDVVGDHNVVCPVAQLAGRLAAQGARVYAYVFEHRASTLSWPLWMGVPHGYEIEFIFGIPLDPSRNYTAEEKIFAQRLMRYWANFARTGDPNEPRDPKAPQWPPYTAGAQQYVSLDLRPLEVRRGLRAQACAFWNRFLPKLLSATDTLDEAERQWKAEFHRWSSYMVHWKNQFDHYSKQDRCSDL
T2 sequence (P22303 32-614): as above
Sequence of human plasma butyrylcholinesterase (hBChE) (P06276 29-602): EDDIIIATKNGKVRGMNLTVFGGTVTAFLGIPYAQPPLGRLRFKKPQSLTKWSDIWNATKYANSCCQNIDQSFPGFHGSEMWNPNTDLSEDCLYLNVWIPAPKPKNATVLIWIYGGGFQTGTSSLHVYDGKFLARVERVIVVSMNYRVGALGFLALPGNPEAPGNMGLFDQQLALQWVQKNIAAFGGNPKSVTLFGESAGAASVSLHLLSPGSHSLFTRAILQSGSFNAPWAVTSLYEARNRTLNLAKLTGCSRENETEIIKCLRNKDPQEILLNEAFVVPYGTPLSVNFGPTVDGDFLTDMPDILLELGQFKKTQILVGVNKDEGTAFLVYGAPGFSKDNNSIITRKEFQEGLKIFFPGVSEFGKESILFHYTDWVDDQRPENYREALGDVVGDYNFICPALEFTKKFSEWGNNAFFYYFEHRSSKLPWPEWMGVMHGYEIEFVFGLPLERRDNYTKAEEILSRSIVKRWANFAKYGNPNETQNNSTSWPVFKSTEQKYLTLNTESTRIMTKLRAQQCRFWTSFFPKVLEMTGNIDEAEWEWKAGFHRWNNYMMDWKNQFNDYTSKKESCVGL

Structure (SMILES) | IC50 [1] [µM] | Selectivity for hAChE [1] | IC50 [2] [µM] | fold weaker inhibitor of hAChE compared to tacrine [1] [fold] | Ki (AChE) [µM] | type of inhibition (AChE) | fold weaker inhibitor of hBChE related to tacrine [2] [fold]
COc1ccc(NC(=O)NCCNc2c3c(nc4ccc(OC)cc24)CCCC3)cc1.O=C(O)C(O)C(O)C(=O)O [compound 16, 3-{2-[(7-Methoxy-1,2,3,4-tetrahydroacridin-9-yl)amino]ethyl}-1-(4-methoxyphenyl)urea-2,3‑dihydroxy-succinate] | 44.9 ± 1.4 | 0.27 | 11.9 ± 2.3 | – | – | – | –
COc1ccc(NC(=S)NCCCCCCNc2c3c(nc4ccc(OC)cc24)CCCC3)cc1.O=C(O)C(O)C(O)C(=O)O [compound 13, 3-{6-[(7-Methoxy-1,2,3,4-tetrahydroacridin-9-yl)amino]hexyl}-1-(4-methoxyphenyl)thiourea-2,3‑dihydroxy-succinate] | 10.3 ± 1.3 | 0.90 | 9.35 ± 0.1 | – | – | – | –
COc1ccc(NC(=S)NCCCCCNc2c3c(nc4ccc(OC)cc24)CCCC3)cc1.O=C(O)C(O)C(O)C(=O)O [compound 12, 3-{5-[(7-Methoxy-1,2,3,4-tetrahydroacridin-9-yl)amino]pentyl}-1-(4-methoxyphenyl)thiourea-2,3‑dihydroxy-succinate] | 4.9 ± 0.3 | 2.71 | 13.5 ± 0.7 | – | – | – | –
COc1ccc(NC(=S)NCCCCCCCCNc2c3c(nc4ccc(OC)cc24)CCCC3)cc1.O=C(O)C(O)C(O)C(=O)O [compound 15, 3-{8-[(7-Methoxy-1,2,3,4-tetrahydroacridin-9-yl)amino]octyl}-1-(4-methoxyphenyl)thiourea-2,3‑dihydroxy-succinate] | 1.36 ± 0.4 | 7.53 | 10.2 ± 4.7 | 4.2 | 1.33 ± 0.125 | non-competitive | –
COc1ccc(NC(=S)NCCNc2c3c(nc4ccc(OC)cc24)CCCC3)cc1.O=C(O)C(O)C(O)C(=O)O [compound 9, 3-{2-[(7-Methoxy-1,2,3,4-tetrahydroacridin-9-yl)amino]ethyl}-1-(4-methoxyphenyl)thiourea-2,3‑dihydroxy-succinate] | 43.6 ± 2.1 | 0.02 | 1.03 ± 0.1 | – | – | – | 12.9
COc1ccc(NC(=O)NCCCCCNc2c3c(nc4ccc(OC)cc24)CCCC3)cc1.O=C(O)C(O)C(O)C(=O)O [compound 19, 3-{5-[(7-Methoxy-1,2,3,4-tetrahydroacridin-9-yl)amino]pentyl}-1-(4-methoxyphenyl)urea-2,3‑dihydroxy-succinate] | 1.35 ± 0.3 | 8.07 | 10.9 ± 1.6 | 4.2 | 0.453 ± 0.0251 | non-competitive | –
COc1ccc(NC(=O)NCCCCCCNc2c3c(nc4ccc(OC)cc24)CCCC3)cc1.O=C(O)C(O)C(O)C(=O)O [compound 20, 3-{6-[(7-Methoxy-1,2,3,4-tetrahydroacridin-9-yl)amino]hexyl}-1-(4-methoxyphenyl)urea-2,3‑dihydroxy-succinate] | 4.56 ± 0.9 | 1.26 | 5.75 ± 0.4 | – | – | – | –
COc1ccc(NC(=S)NCCCCCCCNc2c3c(nc4ccc(OC)cc24)CCCC3)cc1.O=C(O)C(O)C(O)C(=O)O [compound 14, 3-{7-[(7-Methoxy-1,2,3,4-tetrahydroacridin-9-yl)amino]heptyl}-1-(4-methoxyphenyl)thiourea-2,3‑dihydroxy-succinate] | 3.96 ± 0.1 | 0.79 | 3.13 ± 0.3 | – | – | – | –
COc1ccc(NC(=O)NCCCCNc2c3c(nc4ccc(OC)cc24)CCCC3)cc1.O=C(O)C(O)C(O)C(=O)O [compound 18, 3-{4-[(7-Methoxy-1,2,3,4-tetrahydroacridin-9-yl)amino]butyl}-1-(4-methoxyphenyl)urea-2,3‑dihydroxy-succinate] | 13.8 ± 3.9 | 0.68 | 9.34 ± 0.1 | – | – | – | –
COc1ccc(NC(=S)NCCCCNc2c3c(nc4ccc(OC)cc24)CCCC3)cc1.O=C(O)C(O)C(O)C(=O)O [compound 11, 3-{4-[(7-Methoxy-1,2,3,4-tetrahydroacridin-9-yl)amino]butyl}-1-(4-methoxyphenyl)thiourea-2,3‑dihydroxy-succinate] | 32.8 ± 9.9 | 0.18 | 6.04 ± 0.1 | – | – | – | –
COc1ccc(NC(=O)NCCCCCCCCNc2c3c(nc4ccc(OC)cc24)CCCC3)cc1.O=C(O)C(O)C(O)C(=O)O [compound 22, 3-{8-[(7-Methoxy-1,2,3,4-tetrahydroacridin-9-yl)amino]octyl}-1-(4-methoxyphenyl)urea-2,3‑dihydroxy-succinate] | 2.14 ± 0.6 | 0.63 | 1.34 ± 0.2 | – | – | – | 16.8
COc1ccc(NC(=O)NCCCCCCCNc2c3c(nc4ccc(OC)cc24)CCCC3)cc1.O=C(O)C(O)C(O)C(=O)O [compound 21, 3-{7-[(7-Methoxy-1,2,3,4-tetrahydroacridin-9-yl)amino]heptyl}-1-(4-methoxyphenyl)urea-2,3‑dihydroxy-succinate] | 1.72 ± 0.3 | 0.98 | 1.69 ± 0.2 | – | – | – | –
COc1ccc(NC(=O)NCCCNc2c3c(nc4ccc(OC)cc24)CCCC3)cc1.O=C(O)C(O)C(O)C(=O)O [compound 17, 3-{3-[(7-Methoxy-1,2,3,4-tetrahydroacridin-9-yl)amino]propyl}-1-(4-methoxyphenyl)urea-2,3‑dihydroxy-succinate] | 26.9 ± 5.9 | 0.59 | 15.9 ± 4.1 | – | – | – | –
COc1ccc(NC(=S)NCCCNc2c3c(nc4ccc(OC)cc24)CCCC3)cc1.O=C(O)C(O)C(O)C(=O)O [compound 10, 3-{3-[(7-Methoxy-1,2,3,4-tetrahydroacridin-9-yl)amino]propyl}-1-(4-methoxyphenyl)thiourea-2,3‑dihydroxy-succinate] | 6.36 ± 0.5 | 1.37 | 8.73 ± 0.1 | – | – | – | –
